Reference: ChEMBL document CHEMBL1201862, “PubChem BioAssay data set” (2004)
Calls of active or inactive are those of the source.

Legend:
[1] = target: Tyrosine-protein phosphatase non-receptor type 5 (Homo sapiens, UniProt P54829); test: PTPN5 enzyme inhibition – biochemical, fluorescence intensity, uHTS hits, confirmation (AID 602372); format: functional; conditions: read-out: IC50_Mean
[2] = target: T1, Tyrosine-protein phosphatase non-receptor type 22 (Homo sapiens, UniProt Q9Y2R2); test: lymphoid phosphatase LYP inhibitors – biochemical, selectivity assay for STEP inhibitor project, dose response (AID 624241); format: functional
T1 sequence (Q9Y2R2 whole entry): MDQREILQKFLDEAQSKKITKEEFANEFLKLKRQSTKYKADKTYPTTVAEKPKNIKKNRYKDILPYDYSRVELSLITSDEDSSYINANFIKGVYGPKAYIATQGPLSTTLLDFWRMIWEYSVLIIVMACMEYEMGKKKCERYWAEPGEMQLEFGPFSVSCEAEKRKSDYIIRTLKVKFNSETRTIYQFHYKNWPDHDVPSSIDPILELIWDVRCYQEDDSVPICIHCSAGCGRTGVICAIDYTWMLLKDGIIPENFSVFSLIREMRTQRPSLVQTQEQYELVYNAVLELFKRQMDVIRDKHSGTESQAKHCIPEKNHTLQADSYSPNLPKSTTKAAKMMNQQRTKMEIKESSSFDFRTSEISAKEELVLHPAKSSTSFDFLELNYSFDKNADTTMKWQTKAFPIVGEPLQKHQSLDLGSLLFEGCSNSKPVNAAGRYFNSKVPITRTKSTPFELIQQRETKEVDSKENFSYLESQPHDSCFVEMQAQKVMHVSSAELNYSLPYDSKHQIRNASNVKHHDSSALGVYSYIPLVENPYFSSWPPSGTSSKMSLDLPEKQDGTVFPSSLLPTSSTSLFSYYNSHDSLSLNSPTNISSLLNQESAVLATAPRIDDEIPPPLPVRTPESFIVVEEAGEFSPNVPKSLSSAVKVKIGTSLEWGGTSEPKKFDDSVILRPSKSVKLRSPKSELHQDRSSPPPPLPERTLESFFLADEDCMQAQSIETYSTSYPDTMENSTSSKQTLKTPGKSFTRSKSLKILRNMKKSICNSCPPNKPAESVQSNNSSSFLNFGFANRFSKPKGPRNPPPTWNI

[3] = target: Dual specificity protein phosphatase 3 (Homo sapiens, UniProt P51452); test: VHR phosphatase inhibition, dose response, selectivity assay for STEP inhibitor project, biochemical (AID 602374); format: functional; conditions: read-out: IC50_Mean
Sequence of Dual specificity protein phosphatase 3 (P51452 whole entry): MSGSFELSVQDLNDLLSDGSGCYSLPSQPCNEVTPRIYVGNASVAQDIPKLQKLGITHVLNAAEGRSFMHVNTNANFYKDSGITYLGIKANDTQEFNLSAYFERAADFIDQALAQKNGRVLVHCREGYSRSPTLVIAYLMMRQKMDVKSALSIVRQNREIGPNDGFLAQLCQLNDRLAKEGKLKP

[4] = target: Tyrosine-protein phosphatase non-receptor type 11 (Homo sapiens, UniProt Q06124); test: PTPN11 enzyme inhibitors – biochemical, selectivity assay for STEP inhibitor project, dose response (AID 602367); format: functional; conditions: read-out: IC50_Mean
Sequence of Tyrosine-protein phosphatase non-receptor type 11 (Q06124 whole entry): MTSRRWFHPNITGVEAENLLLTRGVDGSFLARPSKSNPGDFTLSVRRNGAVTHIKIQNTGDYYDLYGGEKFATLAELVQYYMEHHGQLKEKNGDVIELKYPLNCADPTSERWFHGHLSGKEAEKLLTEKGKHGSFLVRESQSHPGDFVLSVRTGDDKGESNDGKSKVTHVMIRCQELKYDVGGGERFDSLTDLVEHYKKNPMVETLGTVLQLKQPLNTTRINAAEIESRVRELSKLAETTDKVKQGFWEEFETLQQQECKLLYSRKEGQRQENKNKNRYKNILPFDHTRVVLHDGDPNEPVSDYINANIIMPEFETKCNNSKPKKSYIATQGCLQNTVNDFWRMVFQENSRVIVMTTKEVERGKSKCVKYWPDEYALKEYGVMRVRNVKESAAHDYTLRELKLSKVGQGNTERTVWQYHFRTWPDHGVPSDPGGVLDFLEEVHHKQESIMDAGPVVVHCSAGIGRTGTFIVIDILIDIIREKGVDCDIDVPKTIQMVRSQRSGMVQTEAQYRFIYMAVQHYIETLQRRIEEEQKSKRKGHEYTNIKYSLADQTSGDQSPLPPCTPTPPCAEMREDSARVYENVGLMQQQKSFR

[5] = HEK-293T viability loss after treatment – luminescence, T-cell screen hits, cytotoxicity control for TCR NF-kB inhibitor project, dose response (AID 489026); format: functional, cell-based;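 note: cells exposed to compound about 14 hours before the viability readout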
A549 = test: viability loss in A549 cells – cell-based, plate reader, cherry-pick samples, cytotoxicity control, dose response (AID 687028); format: functional; conditions: Homo sapiens
[6] = microbe, parasite or virus in culture; format: functional; conditions: Mycobacterium tuberculosis
[7] = target: Matrix metalloproteinase-14 (Homo sapiens, UniProt P50281); test: Dose Response confirmation of uHTS hits for a small molecule inhibitors of MT1-MMP activation in a fluorescence assay set 1.; format: functional
Protein Wnt-3a = Protein Wnt-3a (Mus musculus, UniProt P27467); test: antagonism of Wnt3a pathway luciferase reporter – Wnt-LIGHT cells, luminescence, selectivity assay for Gli-SUFU antagonist project, dose response (AID 651570); format: functional; conditions: read-out: IC50_Mean;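 note: Wnt-LIGHT reporter cells stimulated with conditioned medium from Wnt3a-producing cells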
Sequence of Protein Wnt-3a (P27467 whole entry): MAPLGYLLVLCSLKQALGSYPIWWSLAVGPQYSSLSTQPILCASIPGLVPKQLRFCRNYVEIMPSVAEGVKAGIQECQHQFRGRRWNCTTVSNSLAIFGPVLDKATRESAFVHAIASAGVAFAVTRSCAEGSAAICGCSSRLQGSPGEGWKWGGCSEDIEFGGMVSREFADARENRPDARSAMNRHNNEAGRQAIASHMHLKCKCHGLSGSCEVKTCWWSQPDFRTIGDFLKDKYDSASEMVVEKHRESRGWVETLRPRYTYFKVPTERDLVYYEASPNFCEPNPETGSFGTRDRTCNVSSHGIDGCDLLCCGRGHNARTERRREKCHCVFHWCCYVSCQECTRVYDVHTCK

cells [8] = format: functional, cell-based
Streptococcus = test: GAS UMAA2166 growth inhibition – luminescence, BacTiterGlo, counter-screen for streptokinase expression inhibitor project, dose response (AID 1915); format: functional, organism-based;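 note: potency for reduction of bacterial viability or growth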
[9] = reduction of Shn3 3'UTR-driven luciferase in osteoblasts – cell-based, Clone20 osteoblasts, firefly luciferase, cherry-picked, dose response (AID 624132); format: functional;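 note: firefly luciferase luminescence from reporter carrying the Shn3 3'UTR in osteoblasts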
[10] = luciferase reporter signal suppression in cells – H4 neuroglioma cells, luminescence, dose response (AID 1990); format: functional, cell-based
[11] = loss of viability in HepG2 cells – cell-based, CellTiter-Glo, cherry-picked, cytotoxicity control for Shn3 inhibitor project, dose response (AID 624134); format: functional
[12] = target: Photoreceptor-specific nuclear receptor (Homo sapiens, UniProt Q9Y5X4); format: functional, cell-based;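 note: CHO-S cells with Gal4-NCOR and VP16-NR2E3 two-hybrid luciferase reporter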
Sequence of Photoreceptor-specific nuclear receptor (Q9Y5X4 whole entry, the tested form may be a part): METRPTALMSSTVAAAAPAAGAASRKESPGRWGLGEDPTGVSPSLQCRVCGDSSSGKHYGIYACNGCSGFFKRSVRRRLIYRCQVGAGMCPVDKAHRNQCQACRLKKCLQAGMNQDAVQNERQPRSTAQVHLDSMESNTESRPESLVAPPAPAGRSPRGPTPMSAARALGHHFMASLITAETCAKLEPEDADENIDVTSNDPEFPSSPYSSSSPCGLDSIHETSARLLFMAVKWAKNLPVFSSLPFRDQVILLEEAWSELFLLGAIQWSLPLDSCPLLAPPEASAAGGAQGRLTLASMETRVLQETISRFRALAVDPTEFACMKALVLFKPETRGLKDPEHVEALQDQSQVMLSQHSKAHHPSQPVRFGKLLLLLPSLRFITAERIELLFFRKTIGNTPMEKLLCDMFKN

[13] = Luminescence Cell-Based Dose Response HTS to Identify Inhibitors of 5'UTR Stem-Loop Driven Prion Protein mRNA Translation in H4 Neuroglioblastoma Cells. [Related pubchem assays: 1827 (Project Summary), 1813 (Primary HTS)]; format: functional
cells [14] = format: functional, cell-based; remark: listed apart in the source
[15] = non-specific 3'UTR reporter inhibition in Clone20-Shn3RL – cell-based, Renilla luciferase, cherry-picked, counter-screen for Shn3 inhibitor project, dose response (AID 624133); format: functional
[16] = tested on: Streptococcus sp. 'group A'; test: Streptococcus pyogenes SK(-)GAS viability under kanamycin – luminescence, BacTiterGlo, confirmation, counter-screen for streptokinase expression inhibitor project, dose response (AID 1900); format: functional, organism-based
[17] = NIH3T3 cell viability loss – ATP luminescence, mouse fibroblasts, counter-screen, dose response (AID 2010); format: functional, cell-based;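 note: cells exposed to compound for about 90 hours before reading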
[18] = alpha-synuclein stem-loop luciferase translation blockers – H4 neuroglioma cells, luminescence, confirmation (AID 1988); format: functional, cell-based
[19] = Trypanosoma cruzi growth suppression in host cells – NIH3T3 host cells, beta-gal luminescence, confirmation (AID 2044); format: functional, cell-based;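 note: intracellular parasites grown in NIH/3T3 mouse fibroblasts as host cells; luminescent beta-galactosidase reporter signal from transgenic T. cruzi replicating inside host cells; inhibitors lower the luminescence signal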
[20] = NIH3T3 cell viability loss, ATP content – CellTiter-Glo luminescence, cherry-pick, set 2, cytotoxicity control for HSP40 inhibitor project, dose response (AID 624265); format: functional
INS1 = test: INS-1E survival protection against cytokine death – cell-based, luminescence, retest, dose response (AID 449756); format: functional; conditions: Rattus norvegicus;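 note: cell death triggered by IL-1 beta plus TNF-alpha plus IFN-gamma mixture; protective hits raise ATP signal compared with cytokine alone wells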
[21] = target: T2, Methionyl-tRNA synthetase, putative (Trypanosoma brucei brucei, UniProt Q38C91); format: functional, Trypanosoma brucei brucei strain 927/4 GUTat10.1
T2 sequence (Q38C91 whole entry): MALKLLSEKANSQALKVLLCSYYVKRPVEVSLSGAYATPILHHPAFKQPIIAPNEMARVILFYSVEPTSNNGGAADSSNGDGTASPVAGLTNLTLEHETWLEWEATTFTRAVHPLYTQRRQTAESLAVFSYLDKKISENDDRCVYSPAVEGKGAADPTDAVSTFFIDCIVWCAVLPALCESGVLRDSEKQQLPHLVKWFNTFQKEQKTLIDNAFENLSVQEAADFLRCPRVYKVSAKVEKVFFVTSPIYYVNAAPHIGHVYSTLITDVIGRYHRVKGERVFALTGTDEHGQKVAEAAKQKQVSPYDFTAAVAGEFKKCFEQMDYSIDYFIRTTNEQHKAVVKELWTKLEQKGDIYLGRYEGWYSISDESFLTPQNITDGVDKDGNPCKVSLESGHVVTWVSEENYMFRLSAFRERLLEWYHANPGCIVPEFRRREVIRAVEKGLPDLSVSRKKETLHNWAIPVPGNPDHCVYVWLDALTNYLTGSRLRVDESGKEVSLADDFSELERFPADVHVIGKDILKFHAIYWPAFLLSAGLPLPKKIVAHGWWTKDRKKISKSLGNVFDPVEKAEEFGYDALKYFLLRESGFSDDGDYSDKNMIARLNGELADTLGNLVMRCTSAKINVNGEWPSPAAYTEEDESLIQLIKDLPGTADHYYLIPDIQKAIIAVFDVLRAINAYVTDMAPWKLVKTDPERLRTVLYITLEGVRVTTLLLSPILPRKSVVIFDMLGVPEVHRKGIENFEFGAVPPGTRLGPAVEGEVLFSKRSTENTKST

[22] = Counterscreen for inhibitors of Trypanosoma brucei methionyl tRNA synthetase (MetRS): Luminescence-based cell-based high throughput dose response assay to identify compounds that are cytotoxic to Jurkat human T lymphocyte cells.; format: functional
[23] = target: T2, Methionyl-tRNA synthetase, putative; format: functional, Trypanosoma brucei brucei strain 927/4 GUTat10.1; remark: listed apart in the source

Sequence of Tyrosine-protein phosphatase non-receptor type 5 (P54829 whole entry): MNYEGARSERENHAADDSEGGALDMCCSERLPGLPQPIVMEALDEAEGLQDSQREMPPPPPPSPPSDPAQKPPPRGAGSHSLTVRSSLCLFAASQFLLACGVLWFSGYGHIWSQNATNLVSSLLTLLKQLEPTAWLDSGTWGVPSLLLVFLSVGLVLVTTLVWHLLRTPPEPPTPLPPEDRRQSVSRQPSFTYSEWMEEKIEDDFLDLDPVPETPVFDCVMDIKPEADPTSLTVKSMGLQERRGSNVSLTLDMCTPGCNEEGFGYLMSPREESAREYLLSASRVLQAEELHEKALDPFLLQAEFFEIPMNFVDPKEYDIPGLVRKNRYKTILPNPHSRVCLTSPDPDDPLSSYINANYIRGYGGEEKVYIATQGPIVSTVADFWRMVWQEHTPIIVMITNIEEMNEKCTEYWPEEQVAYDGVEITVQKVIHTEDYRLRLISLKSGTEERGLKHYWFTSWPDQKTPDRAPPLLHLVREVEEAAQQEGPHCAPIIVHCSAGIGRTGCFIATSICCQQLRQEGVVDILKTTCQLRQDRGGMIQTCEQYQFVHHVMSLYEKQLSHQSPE

N#CNc1nc(O)cc(=O)[nH]1
IC50 [1]: 7.69 µM (active) | IC50 [2]: 11.5 µM (active) | IC50 [3]: 1.24 µM (active) | IC50 [4]: 2.2 µM (active)

Oc1cc(-c2cccc(F)c2)nc2ccccc12
IC50 [5]: > 80 µM (inactive) | AC50 (A549): 18.8 µM (active)

COc1ccccc1C(=O)NC(=S)/C=C1/N(C)c2ccccc2C1(C)C
CC50 [6]: > 40 µM (active) | IC50 [7]: > 80 µM (inactive) | IC50 (Protein Wnt-3a): 15.2 µM (active)

COc1cnc(-c2ccccn2)nc1N(C)c1ccccc1
EC50 (cells [8]): > 350 µM (not active) | EC50 (Streptococcus): 11 µM (active) | AC50 [9]: 1.83 µM (active) | EC50 [10]: 8.68 µM (active) | AC50 [11]: 4.02 µM (active) | IC50 [12]: 4.58 µM (active) | EC50 [13]: 7.24 µM (active) | EC50 (cells [14]): 8.25 µM (active) | AC50 [15]: 0.92 µM (active) | EC50 [16]: 4.74 µM (active) | EC50 [17]: 5.78 µM (active) | EC50 [18]: > 120 µM (not active) | EC50 [19]: 1.89 µM (active) | AbsAC35_uM [20]: 62.35 µM | AC50 (INS1): 4.34 µM (active)

O=C(CCCOc1ccc(Cl)cc1Cl)N/N=C/c1ccco1
IC50 [21]: 12 µM (inactive) | IC50 [22]: 83.3 µM (inactive) | IC50 [23]: 12.7 µM (inactive)
